Measurements published in PubChem BioAssay (NCI).
Where “and” joins values, the source holds several entries; their conditions need not be identical. Equal values may be shown once.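 In this assay, cells in 96-well plates receive the compound at five concentrations for 48 hours. Endpoints are linearly interpolated between the surrounding concentrations. GI50 is the concentration that inhibits growth by half. TGI denotes the concentration required for complete inhibition of growth.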

Assays:
Assay in all cases: NCI anticancer screen, dose series, 48 h
786-0 renal = system: 786-0 renal
CAKI-1 renal = system: CAKI-1 renal
OVCAR-4 ovarian = system: OVCAR-4 ovarian
OVCAR-5 ovarian = system: OVCAR-5 ovarian
KM12 colon = system: KM12 colon
EKVX NSCLC = system: EKVX NSCLC
MDA-MB-231 breast = system: MDA-MB-231 breast
A549 NSCLC = system: A549 NSCLC
PC-3 prostate = system: PC-3 prostate
HCT-15 colon = system: HCT-15 colon

COc1cc(/C=C/[N+](=O)[O-])cc(OC)c1OC
GI50 (786-0 renal): 1.9 µM | TGI (786-0 renal): 3.53 µM | GI50 (CAKI-1 renal): 1.49 µM | TGI (CAKI-1 renal): 7.39 µM | GI50 (OVCAR-4 ovarian): 3.22 µM | TGI (OVCAR-4 ovarian): 11.5 µM | GI50 (OVCAR-5 ovarian): 2.09 µM | TGI (OVCAR-5 ovarian): 5.11 µM | GI50 (KM12 colon): 3.68 µM | TGI (KM12 colon): 12.3 µM | GI50 (EKVX NSCLC): 13.6 µM | TGI (EKVX NSCLC): 28.4 µM | GI50 (MDA-MB-231 breast): 1.87 µM | TGI (MDA-MB-231 breast): 4.86 µM | GI50 (A549 NSCLC): 4.42 µM | TGI (A549 NSCLC): 19.4 µM | GI50 (PC-3 prostate): 3.25 µM | TGI (PC-3 prostate): 10.6 µM | GI50 (HCT-15 colon): 1.96 µM | TGI (HCT-15 colon): 5.04 µM

C[C@H]1c2ccccc2CN1CCCOc1cc2c(cc1OCC1CC1)C1(CCCC1)C(N)=N2
GI50 (786-0 renal): 2.06 µM | TGI (786-0 renal): 8.2 µM | GI50 (CAKI-1 renal): 1.79 µM | TGI (CAKI-1 renal): 7.65 µM | GI50 (OVCAR-4 ovarian): 1.83 µM | TGI (OVCAR-4 ovarian): 7.42 µM | GI50 (OVCAR-5 ovarian): 3.6 µM | TGI (OVCAR-5 ovarian): 10.1 µM | GI50 (KM12 colon): 2.03 µM | TGI (KM12 colon): 7.69 µM | GI50 (EKVX NSCLC): 4.33 µM | TGI (EKVX NSCLC): 10.8 µM | GI50 (MDA-MB-231 breast): 1.44 µM | TGI (MDA-MB-231 breast): 5.21 µM | GI50 (A549 NSCLC): 1.94 µM | TGI (A549 NSCLC): 7.61 µM | GI50 (PC-3 prostate): 1.69 µM | TGI (PC-3 prostate): 7.6 µM | GI50 (HCT-15 colon): 1.46 µM | TGI (HCT-15 colon): 5.1 µM

O=C(NN1C(=O)CSC1c1ccc(F)cc1)C(O)c1ccccc1 (configuration not stated)
GI50 (786-0 renal): > 100 µM | TGI (786-0 renal): > 100 µM | GI50 (CAKI-1 renal): > 100 µM | TGI (CAKI-1 renal): > 100 µM | GI50 (OVCAR-4 ovarian): > 100 µM | TGI (OVCAR-4 ovarian): > 100 µM | GI50 (OVCAR-5 ovarian): > 100 µM | TGI (OVCAR-5 ovarian): > 100 µM | GI50 (KM12 colon): > 100 µM | TGI (KM12 colon): > 100 µM | GI50 (EKVX NSCLC): > 100 µM | TGI (EKVX NSCLC): > 100 µM | GI50 (MDA-MB-231 breast): 67.6 µM | TGI (MDA-MB-231 breast): > 100 µM | GI50 (A549 NSCLC): 90.9 µM | TGI (A549 NSCLC): > 100 µM | GI50 (PC-3 prostate): 76.8 µM | TGI (PC-3 prostate): > 100 µM | GI50 (HCT-15 colon): > 100 µM | TGI (HCT-15 colon): > 100 µM

O=NN(CCCl)C(=O)NC1CCC(=O)NC1=O (configuration not stated)
TGI (786-0 renal): 377 µM | TGI (CAKI-1 renal): 659 µM | TGI (OVCAR-4 ovarian): > 993 µM | TGI (OVCAR-5 ovarian): > 1210 µM | TGI (KM12 colon): 578 µM | TGI (EKVX NSCLC): 515 µM | TGI (MDA-MB-231 breast): 674 µM | TGI (A549 NSCLC): 811 µM | TGI (PC-3 prostate): > 1250 µM | TGI (HCT-15 colon): 846 µM

C=CCn1c(=O)c2cnc(Nc3ccc(N4CCN(C)CC4)cc3)nc2n1-c1cccc(C(C)(C)O)n1
GI50 (786-0 renal): 0.377 µM and 0.362 µM | TGI (786-0 renal): 9.71 µM and > 10 µM | GI50 (CAKI-1 renal): 0.24 µM and 0.152 µM | TGI (CAKI-1 renal): 16.7 µM and > 10 µM | GI50 (OVCAR-4 ovarian): 0.373 µM and 0.507 µM | TGI (OVCAR-4 ovarian): 28.7 µM and > 10 µM | GI50 (OVCAR-5 ovarian): 0.557 µM and 1.05 µM | TGI (OVCAR-5 ovarian): > 100 µM | GI50 (KM12 colon): 0.293 µM and 0.364 µM | TGI (KM12 colon): 1.53 µM and 3.07 µM | GI50 (EKVX NSCLC): 0.97 µM and 1.36 µM | TGI (EKVX NSCLC): 30.1 µM and > 10 µM | GI50 (MDA-MB-231 breast): 1.33 µM and 0.624 µM | TGI (MDA-MB-231 breast): 27.4 µM and > 7.83 µM | GI50 (A549 NSCLC): 1.14 µM and 1.47 µM | TGI (A549 NSCLC): 11.4 µM and > 10 µM | GI50 (PC-3 prostate): 1.41 µM and 1.06 µM | TGI (PC-3 prostate): > 65.6 µM | GI50 (HCT-15 colon): 0.682 µM and 0.601 µM | TGI (HCT-15 colon): > 67.1 µM

COc1ccc2c(c1)C(=O)c1c-2n(CCCN)c(=O)c2cc([N+](=O)[O-])ccc12
GI50 (786-0 renal): < 0.01 µM | TGI (786-0 renal): < 0.01 µM | GI50 (CAKI-1 renal): < 0.01 µM | TGI (CAKI-1 renal): < 0.01 µM | GI50 (OVCAR-5 ovarian): < 0.01 µM | TGI (OVCAR-5 ovarian): < 0.01 µM | GI50 (KM12 colon): 1.5 µM | TGI (KM12 colon): 3.46 µM | GI50 (EKVX NSCLC): < 0.01 µM | TGI (EKVX NSCLC): 2.31 µM | GI50 (MDA-MB-231 breast): 0.1 µM | TGI (MDA-MB-231 breast): 0.227 µM | GI50 (PC-3 prostate): < 0.01 µM | TGI (PC-3 prostate): 1.79 µM | GI50 (HCT-15 colon): 1.77 µM | TGI (HCT-15 colon): > 100 µM

CC1=C(Cl)C[C@@H](/C(C)=C\Cl)O[C@@]1(O)C(Br)Br
TGI (786-0 renal): > 100 µM | TGI (CAKI-1 renal): 35.4 µM | TGI (OVCAR-4 ovarian): > 100 µM | TGI (OVCAR-5 ovarian): 44.2 µM | TGI (KM12 colon): > 100 µM | TGI (EKVX NSCLC): 80.3 µM | TGI (MDA-MB-231 breast): 41.7 µM | TGI (A549 NSCLC): 60.3 µM | TGI (PC-3 prostate): > 100 µM | TGI (HCT-15 colon): 32.4 µM

CC(=O)O.CC(=O)O.CC(=O)O.CC(=O)O.[Rh].[Rh]
GI50 (786-0 renal): 34.8 µM | TGI (786-0 renal): > 100 µM | GI50 (CAKI-1 renal): 12.2 µM | TGI (CAKI-1 renal): 30.7 µM | GI50 (OVCAR-4 ovarian): 37 µM | TGI (OVCAR-4 ovarian): > 100 µM | GI50 (OVCAR-5 ovarian): 20.5 µM | TGI (OVCAR-5 ovarian): 52.4 µM | GI50 (KM12 colon): 34.8 µM | TGI (KM12 colon): > 100 µM | GI50 (EKVX NSCLC): 20.7 µM | TGI (EKVX NSCLC): 44.1 µM | GI50 (MDA-MB-231 breast): 48.6 µM | TGI (MDA-MB-231 breast): > 100 µM | GI50 (A549 NSCLC): 28.6 µM | TGI (A549 NSCLC): > 100 µM | GI50 (PC-3 prostate): 27.1 µM | TGI (PC-3 prostate): 91 µM | GI50 (HCT-15 colon): 28.5 µM | TGI (HCT-15 colon): 83.9 µM

C=CCCCOC1[C@H](OCc2ccccc2)C(OCc2ccccc2)C(OC)O[C@@H]1CNC(=O)c1cccc(I)c1 (some centres not stated)
GI50 (786-0 renal): 3.78 µM | TGI (786-0 renal): > 100 µM | GI50 (CAKI-1 renal): 11.5 µM | TGI (CAKI-1 renal): > 100 µM | GI50 (OVCAR-4 ovarian): 14.4 µM | TGI (OVCAR-4 ovarian): > 100 µM | GI50 (OVCAR-5 ovarian): > 100 µM | TGI (OVCAR-5 ovarian): > 100 µM | GI50 (KM12 colon): 6.49 µM | TGI (KM12 colon): > 100 µM | GI50 (EKVX NSCLC): 3.2 µM | TGI (EKVX NSCLC): > 100 µM | GI50 (MDA-MB-231 breast): 8.34 µM | TGI (MDA-MB-231 breast): > 100 µM | GI50 (A549 NSCLC): 8.17 µM | TGI (A549 NSCLC): > 100 µM | GI50 (PC-3 prostate): 2.19 µM | TGI (PC-3 prostate): > 100 µM | GI50 (HCT-15 colon): 3.55 µM | TGI (HCT-15 colon): > 100 µM

COc1ccc2c(c1)/C(=C\c1c[nH]c3ccc(OC)cc13)C(=O)N2
GI50 (786-0 renal): 5.35 µM | TGI (786-0 renal): 17.6 µM | GI50 (CAKI-1 renal): 2.13 µM | TGI (CAKI-1 renal): 13.3 µM | GI50 (OVCAR-4 ovarian): 3.5 µM | TGI (OVCAR-4 ovarian): 22.8 µM | GI50 (OVCAR-5 ovarian): 3.43 µM | TGI (OVCAR-5 ovarian): 13.2 µM | GI50 (KM12 colon): 0.32 µM | TGI (KM12 colon): 10.8 µM | GI50 (EKVX NSCLC): 3.01 µM | TGI (EKVX NSCLC): 15.4 µM | GI50 (MDA-MB-231 breast): 1.97 µM | TGI (MDA-MB-231 breast): 6.32 µM | GI50 (PC-3 prostate): 3.84 µM | TGI (PC-3 prostate): 16.3 µM | GI50 (HCT-15 colon): 2.97 µM | TGI (HCT-15 colon): 12.9 µM

CN1CCN(c2cc3nc4ccccc4n(-c4ccc(Cl)cc4)c-3cc2=N)CC1
GI50 (786-0 renal): 31.4 µM | TGI (786-0 renal): > 100 µM | GI50 (CAKI-1 renal): 24.6 µM | TGI (CAKI-1 renal): 82 µM | GI50 (OVCAR-5 ovarian): 24.1 µM | TGI (OVCAR-5 ovarian): 60.8 µM | GI50 (KM12 colon): 16.6 µM | TGI (KM12 colon): 43.8 µM | GI50 (EKVX NSCLC): 30 µM | TGI (EKVX NSCLC): > 100 µM | GI50 (MDA-MB-231 breast): 10.6 µM | TGI (MDA-MB-231 breast): 49.9 µM | GI50 (A549 NSCLC): 24.1 µM | TGI (A549 NSCLC): 60.8 µM | GI50 (PC-3 prostate): 16.1 µM | TGI (PC-3 prostate): 86.8 µM | GI50 (HCT-15 colon): 23.4 µM | TGI (HCT-15 colon): 81.3 µM
